Assay [1] has as its target T1, rat adrenergic α1B receptor (Rattus norvegicus, UniProt P15823).
T1 construct: rat adrenergic α1B receptor obtained from Wistar Rat liver; from tissue; host or cells: Wistar rat liver
T1 sequence (P15823 1-515): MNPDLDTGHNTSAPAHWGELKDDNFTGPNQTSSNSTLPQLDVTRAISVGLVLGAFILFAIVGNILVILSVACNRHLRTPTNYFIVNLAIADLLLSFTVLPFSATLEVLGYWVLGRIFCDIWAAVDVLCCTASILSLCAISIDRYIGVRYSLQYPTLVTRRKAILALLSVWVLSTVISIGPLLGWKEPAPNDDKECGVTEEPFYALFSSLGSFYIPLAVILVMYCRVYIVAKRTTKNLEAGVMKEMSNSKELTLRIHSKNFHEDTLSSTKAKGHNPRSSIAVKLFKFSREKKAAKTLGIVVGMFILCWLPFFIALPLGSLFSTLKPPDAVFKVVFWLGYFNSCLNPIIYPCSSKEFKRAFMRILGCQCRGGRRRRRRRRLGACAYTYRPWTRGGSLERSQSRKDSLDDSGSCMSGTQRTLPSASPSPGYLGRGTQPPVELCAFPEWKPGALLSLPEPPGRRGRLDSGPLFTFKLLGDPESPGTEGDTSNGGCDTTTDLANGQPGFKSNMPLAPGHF
As to the kind of experiment: Radioligand binding, adrenergic α1B receptor ([3H]Prazosin). The settings on record: Wistar rat liver. The gist of the method:
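Wistar rat liver α1B receptor preparation incubated with 0.25 nM [3H]prazosin and compound for 60 min at 25° C in 50 mM Tris-HCl pH 7.4, 0.5 mM EDTA; nonspecific binding defined with 10 μM phentolamine.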

Assay [2] deals with T2, human recombinant adrenergic α1D receptor (Homo sapiens, UniProt P25100).
T2 construct: expressed in transfected cells; host or cells: HEK-293
T2 sequence (P25100 1-572): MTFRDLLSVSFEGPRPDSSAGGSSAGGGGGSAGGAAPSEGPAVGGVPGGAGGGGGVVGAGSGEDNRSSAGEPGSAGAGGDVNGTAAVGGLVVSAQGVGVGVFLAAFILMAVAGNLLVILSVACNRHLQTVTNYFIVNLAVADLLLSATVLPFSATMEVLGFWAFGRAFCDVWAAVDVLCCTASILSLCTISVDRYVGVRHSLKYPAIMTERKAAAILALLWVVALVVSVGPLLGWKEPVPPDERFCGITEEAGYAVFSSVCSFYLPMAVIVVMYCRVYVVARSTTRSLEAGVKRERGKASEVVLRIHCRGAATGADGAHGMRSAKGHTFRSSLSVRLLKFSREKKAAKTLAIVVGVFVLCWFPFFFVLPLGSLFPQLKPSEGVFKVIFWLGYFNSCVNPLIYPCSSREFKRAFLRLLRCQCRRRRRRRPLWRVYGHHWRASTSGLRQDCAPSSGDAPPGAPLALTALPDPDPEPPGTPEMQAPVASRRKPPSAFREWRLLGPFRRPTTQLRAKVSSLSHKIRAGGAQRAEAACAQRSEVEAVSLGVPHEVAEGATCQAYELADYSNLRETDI
The experiment in a line: Radioligand binding, adrenergic α1D receptor ([3H]Prazosin). The settings on record: 0.1 μM compound; HEK-293 cells; 0.6 nM [3H]Prazosin; read-out: Percentage inhibition of ligand binding, Adrenergic α1D. As to the method: Compounds were incubated with 0.6 nM [3H]Prazosin for 60 min at 25° C. Non-specific binding was estimated in the presence of 10 μM phentolamine. Receptor proteins were filtered and washed, the filters were then counted to determine [3H]Prazosin specifically bound. Compounds were screened at 1 μM or lower, using 1% DMSO as vehicle. Biochemical assay results are presented as the percent inhibition of specific binding in Table 2.

Assay [3] addresses T3, human recombinant adrenergic α2A receptor (Homo sapiens, UniProt P08913).
T3 construct: expressed in transfected cells; host or cells: insect Sf9 cells
T3 sequence (P08913 1-465): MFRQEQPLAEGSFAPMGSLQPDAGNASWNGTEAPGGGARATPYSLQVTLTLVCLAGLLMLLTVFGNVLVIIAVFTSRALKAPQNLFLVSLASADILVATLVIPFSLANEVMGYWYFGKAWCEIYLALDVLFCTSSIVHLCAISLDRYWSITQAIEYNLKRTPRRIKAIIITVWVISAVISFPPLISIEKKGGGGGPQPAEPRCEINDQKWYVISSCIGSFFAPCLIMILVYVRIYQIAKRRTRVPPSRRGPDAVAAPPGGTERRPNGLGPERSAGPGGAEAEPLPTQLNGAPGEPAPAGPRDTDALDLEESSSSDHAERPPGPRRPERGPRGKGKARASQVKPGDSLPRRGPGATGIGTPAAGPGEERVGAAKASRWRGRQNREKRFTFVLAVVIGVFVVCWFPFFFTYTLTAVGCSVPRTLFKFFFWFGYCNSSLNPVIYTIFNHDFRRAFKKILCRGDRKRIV
The experiment in a line: Radioligand binding, adrenergic α2A receptor ([3H]MK-912). The settings on record: Sf9 cells, 1 nM [3H]MK-912; for inhibition at 0.03 µM / inhibition at 0.1 µM: read-out: Percentage inhibition of ligand binding, Adrenergic α2A. The gist of the method: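 Percent inhibition of specific [3H]MK-912 (1 nM) binding measured by filtration counting, compounds tested at ≤1 μM in 1% DMSO. Receptor: human α2A from Sf9 cells; incubation 60 min, 25 °C, pH 7.4; 10 μM WB-4101 defined nonspecific binding.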

The mark [4] stands for this setting: 0.1 μM compound, read-out: Percentage inhibition of ligand binding, Adrenergic α1B.

`Cc1ccc2c(c1)c1c(n2-c2cscc2-c2ccc3cnccc3c2)CCN(C)C1` [Compound No. 68]: the values for the inhibition at 0.1 µM in assay [1] (setting [4]), in assay [2] and in assay [3] (0.1 μM compound) were 61%, 68% and 86%, respectively. Also, in assay [3] (0.03 μM compound), the inhibition at 0.03 µM amounted to 76%.
For `Cc1ccc2c(c1)c1c(n2-c2ccccc2-c2cccn2C)CCN(C)C1` [Compound No. 100, 2,8-dimethyl-5-(2-(1-methyl-1H-pyrrol-2-yl)phenyl)-2,3,4,5-tetrahydro-1H-pyrido[4,3-b]indole] the same measures were 79%, 64%, 84% and 74%.
Consider `Cc1ccc2c(c1)c1c(n2-c2ccccc2-c2ccc3c(ccn3C)c2)CCN(C)C1` [Compound No. 85, 2,8-dimethyl-5-(2-(1-methyl-1H-indol-5-yl)phenyl)-2,3,4,5-tetrahydro-1H-pyrido[4,3-b]indole], for which the values for the inhibition at 0.1 µM in assay [1] (setting [4]), in assay [2] and in assay [3] (0.1 μM compound) were 36%, 62% and 89%, respectively. Besides, the inhibition at 0.03 µM in assay [3] (0.03 μM compound) is 80%.
Turning to `Cc1ccc2c(c1)c1c(n2-c2cscc2-c2ccc(S(C)(=O)=O)cc2)CCN(C)C1` [Compound No. 76], the inhibition at 0.1 µM in assay [1] (setting [4]) turned out to be 68%; in assay [2], 73%. In addition, in assay [3] (0.03 μM compound), the inhibition at 0.03 µM was 44%. Also, the “Percentage inhibition of ligand binding, Adrenergic α2A” value in assay [3] (0.1 μM compound) is given as 68%.
Take `Cc1csc(-c2cscc2-n2c3c(c4cc(C)ccc42)CN(C)CC3)c1` [Compound 50]: the values for the inhibition at 0.1 µM in assay [1] (setting [4]), in assay [2] and in assay [3] (0.1 μM compound) were 42%, 51% and 88%, respectively. Moreover, the inhibition at 0.03 µM in assay [3] (0.03 μM compound) was found to be 82%.
`Cc1ccc2c(c1)c1c(n2-c2cscc2-c2ccc(C)s2)CCN(C)C1` [Compound No. 79]: the inhibition at 0.1 µM in assay [1] (setting [4]) turned out to be 51%; in assay [2], 53%; in assay [3] (0.1 μM compound), 90%. For the same molecule, in assay [3] (0.03 μM compound), the inhibition at 0.03 µM worked out at 82%.
`COc1ccc(-c2cscc2-n2c3c(c4cc(C)ccc42)CN(C)CC3)cc1` [Compound 37]: the inhibition at 0.1 µM in assay [1] (setting [4]) came to 77%; in assay [2] it was 79%; in assay [3] (0.1 μM compound) it was 88%. Besides, the inhibition at 0.03 µM in assay [3] (0.03 μM compound) stood at 81%.
`Cc1ccc2c(c1)c1c(n2-c2cscc2-c2ccc3c(ccn3C)c2)CCN(C)C1` [Compound 33]: the inhibition at 0.03 µM was 46% in assay [1] (0.03 μM compound, read-out: Percentage inhibition of ligand binding, Adrenergic α1B) and 87% in assay [3] (0.03 μM compound). Besides, the “Percentage inhibition of ligand binding, Adrenergic α1B” value in assay [1] (0.1 μM compound) stood at 73%. For the same molecule, the inhibition at 0.1 µM in assay [2] was 69%; in assay [3] (0.1 μM compound), 92%. Also, the “Percentage inhibition of ligand binding, Adrenergic α2A” value in assay [3] (0.03 μM compound) and in assay [3] (0.1 μM compound) was 96% each time.

These data come from patent publication US20140155384A1, “COMPOUNDS AND METHODS OF TREATING DIABETES” (Medivation Technologies, Inc., priority 2011, published 2014).
